Data reported in ChEMBL document CHEMBL1201862, “PubChem BioAssay data set” (2004).
Activity calls are given as the source filed them.

Legend:
[1] = Luminescence Cell-Based Dose Response HTS to Identify Activators of Luciferase Translation or Activity in H4 […] Cells. [Related pubchem assays: 1829 (Project Summary), 1814 (Primary HTS)]; format: functional
[2] = tested on: H4; assay: Luminescence Cell-Based Dose Response HTS to Identify Activators of 5'UTR Stem-Loop Driven Prion Protein mRNA Translation in H4 Neuroglioblastoma Cells. [Related pubchem assays: 1829 (Project Summary), 1814 (Primary HTS)]; format: functional; conditions: Homo sapiens
[3] = target: T1, Protein skinhead-1 (Caenorhabditis elegans, UniProt P34707); format: functional
T1 sequence (P34707 whole entry): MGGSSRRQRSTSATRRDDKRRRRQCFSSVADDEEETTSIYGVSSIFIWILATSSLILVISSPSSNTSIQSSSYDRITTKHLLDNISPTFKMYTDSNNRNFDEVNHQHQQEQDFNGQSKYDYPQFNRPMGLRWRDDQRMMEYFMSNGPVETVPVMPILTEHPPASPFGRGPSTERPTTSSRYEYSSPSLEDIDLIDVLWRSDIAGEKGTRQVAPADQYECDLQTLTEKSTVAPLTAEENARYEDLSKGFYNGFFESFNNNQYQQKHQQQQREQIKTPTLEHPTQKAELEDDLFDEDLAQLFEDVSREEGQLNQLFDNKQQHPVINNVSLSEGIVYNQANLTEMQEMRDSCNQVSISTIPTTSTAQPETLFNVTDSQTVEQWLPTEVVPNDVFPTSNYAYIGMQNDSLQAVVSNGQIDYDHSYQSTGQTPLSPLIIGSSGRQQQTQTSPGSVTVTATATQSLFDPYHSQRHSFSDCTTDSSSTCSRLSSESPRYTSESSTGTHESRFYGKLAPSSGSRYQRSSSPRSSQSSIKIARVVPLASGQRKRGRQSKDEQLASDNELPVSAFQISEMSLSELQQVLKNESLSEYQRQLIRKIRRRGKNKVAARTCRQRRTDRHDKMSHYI

[4] = tested on: H9c2; assay: cells; format: functional, cell-based; conditions: Rattus norvegicus, H9c2, Myocardium;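 further: confirmatory concentration-response retest of ultra-high-throughput screening hits for modulation of myocardial damage; cell death induced by hydrogen peroxide oxidative stress; compound pretreatment for 60 min then peroxide exposure for 2 h; potency is for protecting the cells against peroxide damage rather than for killing them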
[5] = target: T2, Corticotropin-releasing factor receptor 2/Corticotropin-releasing factor-binding protein (Homo sapiens, UniProt P24387+Q13324); assay: activators of CRF receptor 2 with binding protein – uHTS hits, confirmation (AID 602473); format: functional; conditions: read-out: EC50_Mean
T2 sequence (Q13324 whole entry): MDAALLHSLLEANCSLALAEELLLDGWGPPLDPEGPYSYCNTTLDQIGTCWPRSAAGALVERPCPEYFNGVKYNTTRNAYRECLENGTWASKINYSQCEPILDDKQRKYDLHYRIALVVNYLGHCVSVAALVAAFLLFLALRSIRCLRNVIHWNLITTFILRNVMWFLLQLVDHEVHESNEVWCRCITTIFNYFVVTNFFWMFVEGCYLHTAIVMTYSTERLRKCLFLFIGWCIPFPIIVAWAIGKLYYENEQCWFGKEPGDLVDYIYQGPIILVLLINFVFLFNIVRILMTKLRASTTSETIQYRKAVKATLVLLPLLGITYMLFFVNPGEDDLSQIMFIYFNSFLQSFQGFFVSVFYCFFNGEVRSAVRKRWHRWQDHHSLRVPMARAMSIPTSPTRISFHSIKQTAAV
T2 sequence (P24387 whole entry): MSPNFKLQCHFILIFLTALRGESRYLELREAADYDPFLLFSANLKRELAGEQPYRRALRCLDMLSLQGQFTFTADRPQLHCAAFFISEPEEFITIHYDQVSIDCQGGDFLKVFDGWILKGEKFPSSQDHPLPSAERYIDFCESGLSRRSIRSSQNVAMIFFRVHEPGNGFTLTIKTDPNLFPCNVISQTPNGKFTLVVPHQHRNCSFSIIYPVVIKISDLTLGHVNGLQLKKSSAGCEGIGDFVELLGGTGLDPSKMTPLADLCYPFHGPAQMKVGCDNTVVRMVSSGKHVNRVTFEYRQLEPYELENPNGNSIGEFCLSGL

[6] = target: T3, RNA-binding protein pos-1 (Caenorhabditis elegans, UniProt G5EF15); assay: disruptors of C. elegans POS-1 RNA interaction – biochemical, fluorescence polarization, dose response (AID 1964);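 further: purified POS-1 fused to maltose binding protein made in E. coli; potency of compounds blocking POS-1 binding to fluorescent RNA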
T3 sequence (G5EF15 whole entry): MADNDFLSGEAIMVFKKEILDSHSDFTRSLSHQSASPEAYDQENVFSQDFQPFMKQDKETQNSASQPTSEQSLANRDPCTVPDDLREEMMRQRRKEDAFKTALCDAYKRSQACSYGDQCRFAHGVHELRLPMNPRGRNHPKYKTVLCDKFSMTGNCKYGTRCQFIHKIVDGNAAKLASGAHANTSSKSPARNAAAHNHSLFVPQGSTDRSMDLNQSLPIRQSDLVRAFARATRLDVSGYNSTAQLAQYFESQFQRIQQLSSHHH

[7] = target: T4, Zinc finger protein mex-5 (Caenorhabditis elegans, UniProt Q9XUB2); assay: potency of MEX-5 RNA-binding blockers – biochemical, C. elegans, fluorescence polarization, dose response (AID 1960)
T4 sequence (Q9XUB2 whole entry): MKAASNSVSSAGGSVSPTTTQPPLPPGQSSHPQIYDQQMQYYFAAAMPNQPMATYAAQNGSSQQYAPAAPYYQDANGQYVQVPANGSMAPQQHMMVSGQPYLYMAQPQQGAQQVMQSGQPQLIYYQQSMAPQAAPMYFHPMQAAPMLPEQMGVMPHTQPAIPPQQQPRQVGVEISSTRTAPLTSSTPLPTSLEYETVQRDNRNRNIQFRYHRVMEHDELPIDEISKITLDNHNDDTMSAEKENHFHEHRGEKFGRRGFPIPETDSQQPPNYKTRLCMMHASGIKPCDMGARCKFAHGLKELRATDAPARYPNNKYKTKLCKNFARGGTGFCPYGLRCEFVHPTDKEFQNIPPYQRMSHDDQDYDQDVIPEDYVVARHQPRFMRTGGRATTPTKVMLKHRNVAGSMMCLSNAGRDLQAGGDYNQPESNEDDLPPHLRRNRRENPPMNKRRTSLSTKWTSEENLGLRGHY

[8] = target: T5, Carboxy-terminal domain RNA polymerase II polypeptide A small phosphatase 1 (Homo sapiens, UniProt Q9GZU7); assay: CTDSP1 inhibitors, concentration-response, biochemical, absorbance readout, ultra-high-throughput screen actives (AID 540297); format: functional
T5 sequence (Q9GZU7 whole entry): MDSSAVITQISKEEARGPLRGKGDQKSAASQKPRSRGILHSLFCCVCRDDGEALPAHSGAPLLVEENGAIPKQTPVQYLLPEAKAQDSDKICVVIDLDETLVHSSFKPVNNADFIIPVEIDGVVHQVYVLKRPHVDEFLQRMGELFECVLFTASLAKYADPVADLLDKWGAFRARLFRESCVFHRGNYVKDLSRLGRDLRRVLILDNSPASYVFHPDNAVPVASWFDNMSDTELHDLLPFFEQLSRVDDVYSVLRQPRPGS

[9] = target: T6, Heat shock factor protein 1 (Mus musculus, UniProt P38532); assay: enhancement of HSF1-driven luciferase signal – cell-based, NIH3T3, luminescence, dose retest, confirmation (AID 435004); format: functional;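 further: stress induced by proteasome inhibitor MG132 added 30 min after compound; luciferase reporter driven by HSF1 response element in NIH3T3 cells; actives raise luminescence as potentiators of the MG132 stress response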
T6 sequence (P38532 whole entry): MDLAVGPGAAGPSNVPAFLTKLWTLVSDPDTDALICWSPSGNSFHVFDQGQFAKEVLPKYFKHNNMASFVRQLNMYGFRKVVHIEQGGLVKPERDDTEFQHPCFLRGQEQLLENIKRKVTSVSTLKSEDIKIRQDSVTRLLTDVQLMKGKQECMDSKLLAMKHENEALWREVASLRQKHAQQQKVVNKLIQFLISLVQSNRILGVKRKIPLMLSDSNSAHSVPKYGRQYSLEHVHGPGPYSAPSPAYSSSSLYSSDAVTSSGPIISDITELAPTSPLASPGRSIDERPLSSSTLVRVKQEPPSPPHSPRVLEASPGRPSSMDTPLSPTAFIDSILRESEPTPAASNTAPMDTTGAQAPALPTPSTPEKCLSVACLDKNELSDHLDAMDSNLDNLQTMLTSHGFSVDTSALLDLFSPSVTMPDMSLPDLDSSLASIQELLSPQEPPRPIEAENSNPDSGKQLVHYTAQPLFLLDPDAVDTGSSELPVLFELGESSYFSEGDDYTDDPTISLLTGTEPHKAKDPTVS

For c1ccc(-c2noc(CC3CCCCC3)n2)cc1, the EC50 [1] was > 120 µM (not active) and the EC50 [2] was > 120 µM (not active).
In the case of Cc1nonc1OC(C)CNc1ccc([N+](=O)[O-])cc1 (stereo not given), the IC50 [3] is reported as > 100 µM (inactive).
With O=C(N/N=C/c1ccccn1)c1ccc(NC(=O)c2cccc([N+](=O)[O-])c2)cc1 the IC50 [4] was > 79 µM (inactive).
For CN1CN(c2ccccc2)C2(CCN(CCCSc3ccccc3NC(=O)/C=C/c3ccccc3)CC2)C1=O, the EC50 [5] was 6.22 µM (active).
In the case of COC(=O)[C@H](CCSC)NC(=O)NC1CCN(Cc2ccccc2)CC1, the EC50 [6] is reported as > 300 µM (not active) and the EC50 [7] is reported as > 300 µM (not active).
In the case of CC1(C)Oc2ccc3ccc(=O)oc3c2C(/C=N/c2ccccn2)=C1O, the IC50 [4] is reported as > 79 µM (inactive).
With CCOC(=O)N1CC=C2C(C#N)=C(N)C(C#N)(C#N)[C@H](c3ccsc3)[C@H]2C1 the EC50 [6] was 78.8 µM (active) and the EC50 [7] was 58.7 µM (active).
For CC(C)c1ccc2oc(-c3ccc(NC(=O)c4nnc[nH]4)cc3)nc2c1, the IC50 [8] was 6.65 µM (active).
With Cc1[nH]c2ccccc2c1/C=N/NC(=S)NC(C)C the EC50 [6] was > 300 µM (not active) and the EC50 [7] was > 300 µM (not active).
With O=C(Nc1cccc(-c2nc3ccccc3s2)c1)c1cc(=O)c2ccccc2o1 the IC50 [8] was 5.07 µM (active).
For O=C(NCc1ccco1)C1CC(c2ccccc2O)=NO1 (stereo not given), the EC50 [5] was > 53 µM (inactive).
For CC(=O)Oc1oc(-c2ccccc2)nc1/C=N/c1ccc(N(C)C)cc1, the EC50 [6] was > 300 µM (not active) and the EC50 [7] was > 300 µM (not active).
In the case of CN(C)S(=O)(=O)c1ccc(N2CCCC2)c(C(=O)NCc2cccc(C(F)(F)F)c2)c1, the IC50 [3] is reported as > 100 µM (inactive).
With O=C(NCCC1=CCCCC1)c1cnc2n(c1=O)CCS2 the EC50 [1] was 39.9 µM (active) and the EC50 [2] was 56.6 µM (active).
With O=C(O)COc1ccc(Br)cc1/C=N/O the IC50 [8] was 8.03 µM (active).
For O=C(Nc1ccc2c(c1)oc1ccccc12)N1CCOCC1, the EC50 [1] was 1.32 µM (active) and the EC50 [2] was > 120 µM (not active).
With Fc1ccc(COc2ccc(-c3nnco3)cc2)c(Cl)c1 the IC50 [3] was 6.56 µM (active).
For Cc1nnc(SCC2=C(C(=O)O)N3C(=O)C(NC(=O)COc4ccccc4)C3SC2)s1 (stereo not given), the IC50 [8] was 8.97 µM (active).
In the case of O=C(CN1C(=O)N/C(=C\c2ccccc2OCc2ccc(C(=O)O)cc2)C1=O)Nc1ccccc1F, the IC50 [8] is reported as 7.13 µM (active).
In the case of COc1ccc(OC)c(C2C(C(=O)c3ccco3)=C(O)C(=O)N2CCN2CCOCC2)c1 (stereo not given), the EC50 [6] is reported as > 300 µM (not active) and the EC50 [7] is reported as > 300 µM (not active).
In the case of Cc1sc2nc(NCCO)nc(O)c2c1C, the IC50 [4] is reported as > 79 µM (inactive).
With CCCc1nc2ccccc2c(C(=O)OCc2nnc(-c3cc(OC)c(OC)c(OC)c3)o2)c1CC the IC50 [4] was > 79 µM (inactive).
For Cc1ccc(/N=C/c2sc(O)c3ccccc23)c(C)c1, the EC50 [6] was > 300 µM (not active) and the EC50 [7] was > 300 µM (inconclusive).
With CCCCOc1ccc(-c2nnc(-c3ccco3)o2)cc1 the EC50 [9] was > 260 µM (inactive) and the IC50 [3] was > 100 µM (inactive).
For Cc1cc(C)nc(N2C(=O)CC(C(C)c3ccccc3)C2=O)n1 (stereo not given), the IC50 [3] was > 100 µM (inactive).
In the case of NC(=O)CC(NC(=O)Cc1cccc2ccccc12)c1ccc(N2CCC(N3CCCCC3)CC2)c([N+](=O)[O-])c1 (stereo not given), the IC50 [3] is reported as > 100 µM (inactive).
For CC(Oc1ccc(Br)cc1)C(=O)N1CCc2ccccc21 (stereo not given), the EC50 [5] was 8.32 µM (active).
In the case of CCCn1c(=O)[nH]c(=O)c2c1nc(-c1ccccc1)n2CCN1CCOCC1, the IC50 [8] is reported as 47.8 µM (active).
In the case of O=C(N/N=C/c1ccccn1)c1cc(-c2cccc3ccccc23)[nH]n1, the IC50 [4] is reported as > 79 µM (inactive).
In the case of CCOC(=O)c1nc(Nc2ccc(C(=O)OC)cc2)c2ccccc2n1, the IC50 [4] is reported as > 79 µM (inactive).
With Fc1ccc(CSc2nc3cc(Br)c[nH]c-3n2)cc1 the IC50 [8] was 9.63 µM (active).
With NC(=O)c1cccc(-c2coc3c(C(=O)NCCc4ccccc4)cccc23)c1 the IC50 [4] was > 79 µM (inactive).
With O=C(CSc1nc2ccccc2o1)NCc1nnc(O)c2ccccc12 the IC50 [4] was 8.34 µM (active).
For CCCC(=O)Nc1cc(C)c2c(=O)oc3ccccc3c2n1, the IC50 [4] was > 79 µM (inactive).
For O=C1/C(=C/c2ccco2)CCc2ccccc21, the IC50 [3] was 31.2 µM (active).
With CCC(=O)N1c2ccc(S(=O)(=O)CCC(=O)NCc3cccs3)cc2CC1C (stereo not given) the IC50 [3] was > 100 µM (inactive).
With N#Cc1c(SCC(=O)Nc2cccc(C(F)(F)F)c2)sc2c(O)cc(O)nc12 the IC50 [8] was 10.4 µM (active).
With O=C1NC(=O)N(CCc2ccc(F)cc2)C(=O)/C1=C/NNC(=O)c1ccccc1 the EC50 [6] was > 300 µM (not active) and the EC50 [7] was > 300 µM (not active).
In the case of Clc1ccc(OCCCc2nc(-c3ccncc3)no2)c(Cl)c1, the IC50 [3] is reported as 20.4 µM (active).
